From PMC7819857, “Identification of Inhibitors of Integrin Cytoplasmic Domain Interactions With Syk” (Frontiers in Immunology, 2021)

Tests used:
[1] = tested on: Pyk-2 phosphorylation in THP-1 cells; experiment: Integrin α4β1-induced phosphorylation of Pyk-2 in THP-1 cells plated on CS-1; format: cell-based, human; conditions: 100 µM loaded by glycerol shock
Description: Syk phosphorylation assays were performed by immobilizing vascular cell adhesion molecule-1 (VCAM)-1 (3 ug/ml), CS-1-BSA (10 ug/ml), or specific monoclonal antibodies (anti-FcγRI mAb 276426, anti-α4β1 mAb 19H8, anti-β2 mAb 76C3, anti-αvβ3 mAb LM609 all at 5 ug/ml) overnight at 4°C in Tris-HCl pH 7.5, 150 mM NaCl, in 6-well plates (non-tissue culture treated, Becton Dickenson, cat# BD351146). Plates were then blocked with BSA (2% w/v) for 1 h at room temperature. […] After electrophoresis, proteins were transferred to nitrocellulose for 1 h 100 V room temperature, blocked in 5% non-fat milk in TBS-T, and probed with the indicated primary antibody at 1:1,000 overnight at 4°C, followed by species-appropriate HRP secondary antibody (Southern Biotech) at 1:5,000 (30 min at room temperature), and detected using Pierce West Pico (Thermo Scientific cat# 34580). […]
Figure 6 Selective inhibition of integrin signaling by ceftazidime. […] Data are expressed as mean ± range from duplicate determinations. […] Kinase activity is expressed as percent of maximum signal. Data are expressed as mean ± SEM (n = 3). **p < 0.01 (D) Selective effects of ceftazidime on integrin signaling. […] Phosphorylation of Syk (left and right panel) and Pyk-2 (center panel) was analyzed by immunoprecipitation and western blot. […] Results are expressed as the mean ± SEM. […]

[2] = target: T1, integrin β3 cytoplasmic domain (bβ3(fl)) : GST-Syk(6-370) (Homo sapiens, UniProt P43405); experiment: ELISA-based orthogonal assay, bβ3(fl) and GST-Syk(6-370); format: binding
T1 construct: the tandem SH2 domains of Syk (residues 6-370); made in house; host or cells: E. coli BL21(DE3)
Description: For ELISA-based assays, 96-well plates (Costar cat# 9018) were coated overnight at 4°C with neutravidin (Thermo Scientific, cat#31050) in 10 mM Tris pH 9 and 100 mM NaCl. After overnight incubation, non-specific binding sites were blocked with bovine serum albumin (BSA) (2% w/v) for at least 1 h at room temperature. Plates were washed in 25 mM HEPES pH 7.5, 100 mM NaCl, 0.1% BSA, and 0.01% TritonX-100 (assay buffer), and indicated biotinylated β3 peptide was incubated for at least 2 h at room temperature (0.5–3 ug/ml in di-H2O). After washing in the assay buffer, GST-fusion proteins were added (50 ul, indicated concentrations) and incubated at room temperature for 1 h in assay buffer. For compound inhibition studies, compounds were added to GST-fusion proteins (at indicated concentrations) before they were added to plates. Plates were washed 3× with assay buffer (200 ul) to remove unbound GST-fusion protein. Horseradish peroxidase (HRP)-conjugated anti-GST antibody [Polyclonal anti-GST(Z-5)-HRP, Santa Cruz Biotechnology, cat #sc-459 0.2 ug/ml] was incubated in washed plates in 50 ul assay buffer for 45 min at room temperature. After washing, the signal was generated with 1-step Ultra TMB-ELISA (Thermo Scientific, cat#34028), stopped with 2 N H2SO4, and read on a plate reader (SPARK 10M/Tecan) at 450 nm.
Figure 3 Dose-response curves in primary and orthogonal screens. (A) AlphaScreen dose-response curves. […] Data are expressed as mean fluorescence (Fl520) ± range from duplicates, and one representative experiment of “n” performed is shown. (B) Orthogonal ELISA-based dose-response assays. […] Data are expressed as mean abs450 ± SEM from triplicate determinations, and one of three representative experiments is shown. (C) Ceftazidime inhibition of β3 peptide binding to Syk from THP-1 whole cell lysate. THP-1 cell lysate (100 ug) was treated with or without ceftazidime (Ctaz) before incubation with β3-coated avidin-agarose beads, and bound Syk was measured by western blot (example shown in inset). Blank beads served as a negative control. […]

CC(C)(O/N=C(\C(=O)N[C@@H]1C(=O)N2C(C(=O)[O-])=C(C[n+]3ccccc3)CS[C@H]12)c1csc(N)n1)C(=O)O [ceftazidime]
integrin α4β1 induced phosphorylation of Pyk-2 [1]: inhibited | inhibitory activity in ELISA-based orthogonal assay [2]: remained active
